Where a SMILES comes first, the peptide text is derived from it. The star is where a group is joined. Biotin = O=C1N[C@H]2[C@H](CS[C@H]2CCCCC(=O)*)N1; X1 = O=C(c1c(O)ccc2c1oc1cc(=O)ccc-1[n+]2[O-])*

Data set [1] can be described thus: Surface-based lactate assay on immobilized resazurin probes (coupled LDH/diaphorase reactions). It counts as biochemical. The conditions noted are these: surface-immobilized probe; sodium lactate, NAD+, LDH and diaphorase. The source says: We then evaluated the BRz and APRz probes for their performance in lactate detection experiments. BRz was immobilized onto the surface through ssDNA-streptavidin conjugates. Similarly, dibenzocyclooctyne-modified ssDNA enabled surface grafting of APRz molecules (FIG. 3, panel a).^[10] The resazurin-modified surfaces were exposed to a solution containing a mixture of sodium lactate, nicotinamide adenine dinucleotide (NAD+), lactate dehydrogenase (LDH) and diaphorase. In this case, the enzyme reaction cascade shown in FIG. 1, panel a translates the lactate quantity to fluorescence readouts.
A 16-well PDMS slab was placed onto a microscope glass slide, on which single strand DNA oligomers are patterned in 20 μm stripes. The volume of each well is 50 μL and it is equipped with at least eight sets of DNA barcode strips. […]
Subsequently, each well was washed with PBST for three times. At this stage, the APRz probe was immobilized to the surface and ready to use.
To obtain the standard curve for lactate quantification, 20 μL of NAD+ solution (1 mM in PBST), 1 μL of LDH solution (1 kU in ammonium sulfate buffer), 1 μL of diaphorase solution (1 kU/mL in PBS) and 20 μL of lactate solution (various concentrations in PBST) was added to each well and the device was incubated at room temperature for one hour. […] The surface fluorescence intensity was then measured by a microscanner. […]

Data set [2] in a line: Stability of modified resazurin probes. As to conditions: solution phase, 8 μM in PBS. Format: physicochemical. The protocol: FIG. 7. Synthesis of the extended CRz bearing an aliphatic carboxyl group (CPRz). This carboxyl group could be readily converted to an NHS ester using standard coupling procedures. However, the ss-DNA-CPRz was not stable, and went through spontaneous self-reduction even at −20° C.
FIG. 10. Stability of Biotin-modified CRz (BRz) in solution phase. 8 μM in PBS. At 6 hrs, all the BPRz was reduced through adding 10 units of Diaphorase and 1 mM of NADH in PBS.
FIG. 11. Stability of the APRz probe (8 μM in PBS). The “reduced” signal was obtained through adding 10 units of Diaphorase and 1 mM of NADH to the APRz solution followed by a 1 hour incubation.
In order to be adapted to the SCBC platform, the probe immobilization process should be compatible with the single-stand DNA hybridization process.^[5] However, the N-oxide group on CRz confers strong redox lability. Consequently, the attempt of conjugating the amine-modified CRz to a single strand DNA (ssDNA) was unsuccessful.

Data set [3] is described as follows: Interference of intracellular reducing agents with APRz detection. It counts as biochemical. The conditions noted are these: Glutamine 6 mM; Glucose 6 mM; Ascorbate 100 nM; Glutathione 6 mM; APRz 8 µM in PBS. The source says: FIG. 15. Comparison of the reaction kinetics using different reducing agents.
A potential concern of employing the enzymatic mechanism for lactate quantitation was the specificity of the method. The complex intracellular contents always pose strong challenges on such redox-based methods. […] In order to evaluate the combined interference from all intracellular components, we further performed validation using GBM39 cell lysates.

The next data set has as its system GBM39 cells. The data set can be described thus: SCBC single cell metabolic/proteomic measurements. It counts as cell-based, human. As to conditions: for glucose uptake / lactate production: erlotinib 1 μM 24 h or oligomycin A 0.1 μM 3 h vs DMSO. An excerpt:
We then sought to adapt the lactate assay for single cell level quantitation. The surface-based lactate assay was incorporated onto the SCBC platform, which consisted of a two-layer elastomer microfluidics device coupled to a DNA barcoded glass slide.^[5, 7] The device contained 384 programmable microchambers where cells were loaded and lysed for analysis. Each microchamber was equipped with a set of DNA barcode stripes, which served as a scaffold for multiplex measurements (FIG. 18). We quantified glucose uptake, lactate production and a panel of signaling proteins from GBM39 single cells. GBM39 is a human glioblastoma cell line that harbors a mutated form of the epidermal growth factor receptor (EGFR), which drives cell proliferation. Cells were treated with 1 μM of erlotinib (EGFR inhibitor), 0.1 μM of oligomycin A (ATPase inhibitor) or DMSO (control) before analysis.
GBM 39 primary neurospheres were provided by Prof. C. David James (UCSF, San Francisco, U.S.A.) and HK301 cells were provided by Prof. Harley Kornblum (UCLA, Los Angeles, U.S.A). Cells were cultured in Dulbecco's Modified Eagle Media Nutrient Mix F-12 (DMEM/F12, Thermo) supplemented with B27 (Invitrogen), Glutamax (Thermo), heparin (1 μg/mL, Sigma), Epidermal Growth Factor (EGF, […], Sigma), Fibroblast Growth Factor (FGF, 20 ng/mL, Sigma) and 100 U/mL of penicillin and streptomycin (Thermo) in a humidified 5% CO2 (v/v) incubator at 37° C. […] For the erlotinib group, the GBM 39 cells were treated for 24 h while for the oligomycin group, the cells were treated for 3 h. Afterwards, the treated cells were processed for tests.
For SCBC measurements, the as-prepared single cells were resuspended in warm media with 10 μg/mL of Gluc-Bio at 1 M cells/mL. After incubated at 37° C. for 30 min and washed with cold PBS for 3 times, the collected cell pellet was resuspended in serum-free, biotin-free media which contained 25 U/mL lactate dehydrogenase (LDH) and 25 U/mL diaphorase. The concentration of the as-prepared single cell suspension was 1 M cells/mL.
The single cell barcode chips (SCBC) were fabricated according to well-established procedures. DNA-encoded antibody library (DEAL) was grafted onto the surface through DNA hybridization to afford capture antibody arrays. The DNA-APRz conjugate can also be incorporated onto the surface barcode through the same procedure. […] 2) the lysis buffer was prepared to contain 2 mM of NAD^+.
The SCBC readouts from the microchambers with single cells were collected to form a data table. Each row of the table corresponds to a measurement of a panel of functional proteins from a single cell and each column contains digitized fluorescence intensities that provide readout of the levels of each of the assayed proteins. […]. Protein-protein Spearman's rank correlation coefficients were calculated. Bonferroni corrected p-value was used to define the statistical significance level for the entire panel and only those significant correlations were shown in the networks. Analyte-analyte correlation networks were generated by running the calculation through all the analyte pairs in panel.

Regarding `NCCCC[C@H](NC(=O)CNC(=O)CCCC[C@@H]1SC[C@@H]2NC(=O)N[C@@H]21)C(=O)NCC(=O)N[C@@H](CCCCN)C(=O)NCC(=O)N[C@@H](CCCCN)C(=O)NCC(=O)N[C@@H](CCCCNC(=O)c1c(O)ccc2c1oc1cc(=O)ccc-1[n+]2[O-])C(=O)NCC(N)=O` [BRz] (Biotin-GKGKGKGK(X1)G-NH2), the “increase of fluorescence intensity after lactate conversion” value in data set [1] was “unsatisfactory fluorescence increase”. Also, the stability of probe result in data set [2] is listed as “superior stability”.
`O=C1O[C@H]([C@@H](O)CO)C(O)=C1O` [ascorbic acid]: in data set [3], the “fluorescence increase within the assay duration” value is on record as “insignificant fluorescence increase” and the “reaction kinetics of APRz reduction by reducing agent” value was “very slow reaction kinetics”.
Turning to `C#Cc1cccc(Nc2ncnc3cc(OCCOC)c(OCCOC)cc23)c1` [erlotinib], in the data set on GBM39 cells, the glucose uptake entry is “dramatically decreased” and the lactate production entry is on record as “dramatically decreased”. In addition, the “phosphorylation levels on EGFR as well as downstream signaling proteins” value in the data set with GBM39 cells (erlotinib 1 μM 24 h vs DMSO) was “significant down regulation”.
Consider `N[C@@H](CCC(=O)N[C@@H](CS)C(=O)NCC(=O)O)C(=O)O` [glutathione], for which, in data set [3], the “fluorescence increase within the assay duration” value is given as “insignificant fluorescence increase” and the “reaction kinetics of APRz reduction by reducing agent” value is “very slow reaction kinetics”.
Consider `CC[C@H]1/C=C/C=C/C[C@@H](C)[C@H](O)[C@@](C)(O)C(=O)[C@@H](C)[C@H](O)[C@@H](C)C(=O)[C@@H](C)[C@H](O)[C@@H](C)/C=C/C(=O)O[C@@H]2[C@H](C)[C@H](CC1)O[C@]1(CC[C@H](C)[C@H](C[C@@H](C)O)O1)[C@H]2C` [oligomycin, oligomycin A], for which, in the data set on GBM39 cells, the glucose uptake result is “slightly higher” and the lactate production entry was “significantly increased”. Further, in the data set on GBM39 cells (oligomycin A 0.1 μM 3 h vs DMSO), the “phosphoproteins downstream of the EGFR signaling pathway” value is “suppress”.

The values are drawn from US12228568B2, “Redox-labile fluorescent probes and their surface immobilization methods for the detection of metabolites” (The Regents of the University of California, priority 2018, dated 2025).
